The record followed here is ChEMBL document CHEMBL4364264, “Tetrazole hybrids with potential anticancer activity” (Eur J Med Chem, 2019).

For one test, the system named is HCT-116. As to the kind of experiment: Cytotoxicity against human HCT116 cells after 96 hrs by MTT assay. In kind it is functional, cell-based. The note with it: HCT-116, 96 h. (Formazan colour is commonly taken as a measure of viable cells.)
For test [1], the system named is HepG2. As to the kind of experiment: Cytotoxicity against human HepG2 cells after 96 hrs by MTT assay. In kind it is functional, cell-based. Particulars: HepG2, 96 h.
The next test deals with MDA-MB-231. As to the kind of experiment: Growth inhibition of human MDA-MB-231 cells by microtiter plate assay. In kind it is functional.
The subject of the next test is MCF7. As to the kind of experiment: Growth inhibition of human MCF7 cells by microtiter plate assay. In kind it is functional.
Another test concerns DU-145. The test is described as follows: Growth inhibition of human DU145 cells by microtiter plate assay. In kind it is functional.
The subject of a further test is HT-29. As to the kind of experiment: cells. The note with it: Homo sapiens, HT-29, 48 h.
A further test has as its system PC-3. As to the kind of experiment: cells. Particulars: Homo sapiens, PC-3, 48 h.
Test [2] concerns HepG2. As to the kind of experiment: Cytotoxicity against human HepG2 cells.

Each structure is given as a SMILES string. Values after ≈ are worked out from the molar mass of the structure shown.

The term IC50 denotes the concentration that inhibits the measured activity by half. As usually defined, the GI50 is the concentration at which growth is held to half of that of the control.

Description for HT-29: Antiproliferative activity against human HT-29 cells after 48 hrs by MTT assay

Consider `CC[C@H](CC[C@@H](C)[C@H]1CC[C@H]2[C@H]3[C@H](CC[C@]12C)[C@@]1(C)CCCCC1=Cc1nnnn13)C(C)C`, for which the IC50 amounted to 4.58 µM in the test with HCT-116 and 4.82 µM in the test with HepG2 [1].
On to `CCc1cc2c(cc1OS(N)(=O)=O)CC[C@@H]1[C@@H]2CC[C@]2(C)[C@@H](Cc3nnn(C)n3)CC[C@@H]12`, for which the GI50 in the test on MDA-MB-231, with MCF7 and in the test with DU-145 was 0.8 to 47 µM throughout.
On to `COc1cccc2c1C(=O)c1c(O)c3c(c(O)c1C2=O)C[C@@](O)(C(=O)CO)C[C@@H]3O[C@H]1C[C@H](N)[C@H](O)[C@H](C)O1` [DOXORUBICIN], for which the IC50 in the test on HT-29 stood at 2.24 µM; with PC-3, 3.86 µM; in the test on HepG2 [2], 4 µg/mL (≈ 7.36 µM); with HCT-116 it was 2.6 µM; in the test with HepG2 [1] it was 2.85 µM.
